Data from patent US20180346473A1, “FUSED BICYCLIC COMPOUNDS” (Akarna Therapeutics, Ltd., priority 2017, published 2018).

Target: T1, FXR (Homo sapiens, UniProt Q96RI1)
T1 sequence (Q96RI1 1-486): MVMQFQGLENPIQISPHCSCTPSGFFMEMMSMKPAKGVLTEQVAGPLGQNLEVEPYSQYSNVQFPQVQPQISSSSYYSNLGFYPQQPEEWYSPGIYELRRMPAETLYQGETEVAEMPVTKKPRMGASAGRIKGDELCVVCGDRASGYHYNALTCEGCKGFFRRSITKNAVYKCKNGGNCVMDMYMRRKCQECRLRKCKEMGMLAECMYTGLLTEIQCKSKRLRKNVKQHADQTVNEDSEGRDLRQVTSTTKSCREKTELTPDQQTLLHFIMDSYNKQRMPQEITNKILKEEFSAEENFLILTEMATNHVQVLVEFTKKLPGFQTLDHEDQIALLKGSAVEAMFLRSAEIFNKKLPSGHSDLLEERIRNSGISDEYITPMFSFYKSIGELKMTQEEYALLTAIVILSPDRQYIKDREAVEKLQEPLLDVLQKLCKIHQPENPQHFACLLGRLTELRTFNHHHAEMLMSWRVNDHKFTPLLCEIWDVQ
Experiment: FXR Agonist Assay (Gaussia luciferase reporter in cells)
Format: cell-based
Conditions: 20 hours incubation at 37° C., Gaussia luciferase luminescence, normalized to DMSO control
Method: Starting from 3.33 mM of compound in DMSO solution, a 10-point 3-fold serial dilution was made by diluting 5 μL of compound into 10 μL of DMSO. The serially diluted compound was then diluted 1:33 into DMEM. This medium was then diluted ten-fold into the culture medium with the cells (10 μL/well). All concentration points are assayed in duplicate. Plates were incubated at 37° C. for 20 hours. After the incubation, 20 μL of culture medium were removed from each well and mixed with 50 μL of assay solution (Pierce™ Gaussia Luciferase Flash Assay Kit). The luminescence was measured immediately after addition of the Luc substrate with an Envision microplate reader. The raw data was uploaded to CDD and dose-response curves were generated using the Levenberg-Marquardt algorithm integrated into CDD. A negative control DMSO is included on each plate and used to normalize the data with the CDD built-in normalization function.

SMILES	EC50 [nM]
CC(C)NC(=O)C1=CN(C(=O)c2ccc(F)c(F)c2)CC(C)(C)c2c(C(F)(F)F)n[nH]c21 [Compound 1, (E)-6-(3,4-difluorobenzoyl)-N-isopropyl-4,4-dimethyl-3-(trifluoromethyl)-1,4,5,6-tetrahydropyrazolo[3,4-d]azepine-8-carboxamide]	< 500
CC(C)OC(=O)C1=CN(C(=O)c2ccc(OCCN3CCOCC3)cc2)CC(C)(C)c2c(C(F)(F)F)n[nH]c21 [Compound 2, (E)-isopropyl 4,4-dimethyl-6-(4-(2-morpholinoethoxy)benzoyl)-3-(trifluoromethyl)-1,4,5,6-tetrahydropyrazolo[3,4-d]azepine-8-carboxylate]	< 500
CC(C)OC(=O)C1=CN(C(=O)c2ccc(OCCN3CCOCC3)c(F)c2)CC(C)(C)c2c(C(F)(F)F)n[nH]c21 [Compound 3, (E)-isopropyl 6-(3-fluoro-4-(2-morpholinoethoxy)benzoyl)-4,4-dimethyl-3-(trifluoromethyl)-1,4,5,6-tetrahydropyrazolo[3,4-d]azepine-8-carboxylate]	< 500
